How the values were obtained:
[1] = up to 2-year carcinogenicity studies; cited from earlier work
[2] = test system: fibrosing NASH-model of rats fed a CDAA+1% cholesterol diet; experiment: Chronic CDAA+1% cholesterol rat model: liver histology (picrosirius fibrosis surface, NASH lesions); type: in vivo, Wistar rats
Protocol: (§1) The preventive effects of Elafibranor alone, OCA alone and the combination of both were assessed in a fibrosing NASH-model of rats fed a CDAA+1% cholesterol diet. 150-175 g male Wistar rats were fed a control (CSAA) diet, CDAA+1% cholesterol diet, or CDAA+1% cholesterol diet supplemented with Elafibranor 1, 3 and 10 mg/kg/day, OCA 10 and 30 mg/kg/day or combined drugs (Elafibranor 1, 3 and 10 mg/kg/day combined to OCA 10 mg/kg/day) for 12 weeks.
(§2) The body weight and the food intake were monitored twice per week. On the last day of treatment, rats were sacrificed after a 6 h fasting period. The liver was rapidly excised for biochemical and histological studies.
The liver slices were first fixed for 12 hours in formalin 4% solution. Then, the liver pieces were washed 30 minutes in PBS, and dehydrated in ethanol solutions (successive baths at 70, 80, 95 and 100% ethanol). The liver pieces were incubated in three different baths of Xylene (Sigma-Aldrich cat #534056), followed by two baths in liquid paraffin (56° C.). Liver pieces were then put into racks that were gently filled with HISTOWAX to completely cover the tissue.
The paraffin blocks containing the tissue pieces were removed from the racks and stored at room temperature. The liver blocks were cut into 3 μm slices.
Liver sections were deparaffinized, rehydrated and incubated for 3 minutes in Mayer's Hematoxylin (Microm, cat #F/C0303). Then, the liver sections were rinsed in water and incubated 1 minute in Eosin G (VWR, cat #1.09844.1000). Sections were rinsed in water then dehydrated, and mounted using the CV Mount medium (Leica, cat #14046430011).
Liver sections were deparaffinized, rehydrated and incubated for 15 minutes in a solution of Fast Green FCF 0.1% (Sigma-Aldrich, cat #F7258) before rinsing in a bath of 0.5% acetic acid (Panreac, cat #131008.1611). Then, the liver sections were rinsed in water and incubated 30 minutes in a solution of 0.1% sirius red (Direct Red 80, Fluka cat #43665) in saturated aqueous picric acid (Sigma-Aldrich cat #P6744). Sections were then dehydrated, and mounted using the CV Mount medium (Leica, cat #14046430011).
A technician blinded to the source of each liver specimen performed histological examinations. Virtual slides were generated using the Pannoramic 250 scanner from 3D Histech. For each animal, a score summarizing the main histological lesions of NASH was attributed according to the NASH Clinical Research Network (Kleiner 2005, Brunt 1999). Briefly, steatosis, lobular inflammation and hepatocytes ballooning were scored. The NAFLD Activity Score (NAS score) was established for each individual as the unweighted sum of the steatosis (0-3), lobular inflammation (0-3) and the ballooning (0-2) injury grading.
Using Quant Center software (3D Histech, including Pattern Quant and Histo Quant modules), collagen-stained areas were quantified. Briefly, Pattern Quant was used to detect the tissue and measure its surface. Then, Histo Quant was used to detect the stained collagen content and measure its surface, based on a color threshold method. The fibrosis area was then expressed as the percentage of the collagen surface to the whole tissue per animal.

[3] = test system: NASH; conditions: over 800 patients and healthy volunteers; cited from earlier work
[4] = test system: fibrosing NASH-model of rats fed a CDAA+1% cholesterol diet; experiment: Chronic CDAA+1% cholesterol rat model: hepatic gene expression (qPCR); type: in vivo, Wistar rats; conditions: liver; GFT505 3 mg/kg/d, OCA 10 mg/kg/d, alone or combined; 12 weeks
Protocol: as §1, §2
Total RNA was isolated from rat livers using RNeasy Mini Kit (Qiagen) following manufacturer's instructions. Total RNA were reverse transcribed into cDNA using M-MLV RT (Moloney Murine Leukemia Virus Reverse Transcriptase) (Invitrogen cat #28025) in 1×RT buffer (Invitrogen), 0.5 mM DTT (Invitrogen), 0.18 mM dNTPs (Promega), 200 ng pdN6 (Amersham) and 30 U of RNase inhibitor (Promega).
Quantitative PCR was then carried out using the CFX96 TOUCH Real-Time PCR Detection System (Biorad). Briefly, the PCR reactions were performed in 96-WP format in 25 μl of total volume containing 1 μL of reverse transcription reaction, 0.5 μL of reverse and forward primers (10 pmol each), and 12.5 μl of 2×iQ SYBR Green Supermix (BioRad), using the following primer sequences:
Expression levels were normalized using the expression of RPLP0 gene as a housekeeping gene of reference in samples. For each gene, the standard curves were drawn by selecting the best points (at least three points) in order to have PCR reaction efficiency close to 100% and a correlation coefficient close to 1. Expression levels were determined using the standard curve equation for both the housekeeping gene and the target gene (taking into account the specific PCR efficiency of each target gene).

[5] = test system: fibrosing NASH-model of rats fed a CDAA+1% cholesterol diet; experiment: Chronic CDAA+1% cholesterol rat model: hepatic collagen content (hydroxyproline); type: in vivo, Wistar rats; conditions: GFT505 3 mg/kg/d, OCA 10 mg/kg/d, alone or combined; 12 weeks in diet
Protocol: as §1, §2
The hepatic collagen content was determined using the appropriate QuickZyme kit (Total collagen assay, cat #QZB-totcol2). The assay is based on the detection of hydroxyproline, which is a non-proteinogenic amino acid mainly found in the triple helix of collagen. Thus, hydroxyproline in tissue hydrolysates can be used as a direct measure of the amount of collagen present in the tissue (without discrimination between procollagen, mature collagen and collagen degradation products).
Complete hydrolysis of tissue samples in 6M HCl at 95° C. is required before dosing the hydroxyproline. The assay results in the generation of a chromogen with a maximum absorbance at 570 nm. Results are expressed as mg of collagen/g of liver.

## 1-[4-methylthiophenyl]-3-[3,5-dimethyl-4-carboxydimethylmethyloxyphenyl]prop-2-en-1-one [Elafibranor]
[1]
  safety concern: absence of safety concern
[2]; CDAA/chol diet rats, 12 weeks
  fibrosis development: very significant attenuation of fibrosis development
  hepatocyte damage as judged by ballooning: prevented or attenuated by elafibranor, in a dose-dependent manner
  lobular inflammation: attenuated by elafibranor in a dose-dependent manner
[2]; GFT505 3 mg/kg/d, OCA 10 mg/kg/d, alone or combined, 12 weeks in diet
  Fibrosis surface, percentage over the untreated CDAA + 1% cholesterol rats: 34% ± 17%
[3]
  clinical properties for NASH (liver markers, insulin sensitivity, plasma lipids, anti-inflammatory): has demonstrated beneficial properties for NASH
[4]
  CCR5 mRNA level (marker of inflammation), percentage over the untreated CDAA + 1% cholesterol rats: 103% ± 51%
  TGFβ1 mRNA level, percentage over the untreated CDAA + 1% cholesterol rats: 94% ± 20%
  TIMP1 mRNA level, percentage over the untreated CDAA + 1% cholesterol rats: 78% ± 23%
  αSMA mRNA level, percentage over the untreated CDAA + 1% cholesterol rats: 66% ± 27%
[5]
  Hepatic collagen content, percentage over the untreated CDAA + 1% cholesterol rats: 45% ± 12%

From patent publication US11478440B2, “Combination of Elafibranor or derivatives thereof with an anti-NASH, anti-fibrotic or anti-cholestatic agent” (GENFIT, priority 2017, dated 2022)
